Measured values taken from PubChem BioAssay (NCI).
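Values below derive from 48-hour exposures of cells grown in 96-well plates, with endpoints linearly interpolated between the two concentrations bracketing the appropriate inhibition level. TGI: concentration producing complete growth inhibition.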

Columns and labels:
Assay in all cases: NCI anticancer screen, dose series, 48 h
786-0 renal = test system: 786-0 renal
A498 renal = test system: A498 renal
A549 NSCLC = test system: A549 NSCLC
ACHN renal = test system: ACHN renal
BT-549 breast = test system: BT-549 breast
CAKI-1 renal = test system: CAKI-1 renal
COLO 205 colon = test system: COLO 205 colon
DU-145 prostate = test system: DU-145 prostate
EKVX NSCLC = test system: EKVX NSCLC
HCC-2998 colon = test system: HCC-2998 colon
HCT-116 colon = test system: HCT-116 colon
HCT-15 colon = test system: HCT-15 colon
HOP-62 NSCLC = test system: HOP-62 NSCLC
HOP-92 NSCLC = test system: HOP-92 NSCLC
HS 578T breast = test system: HS 578T breast
HT29 colon = test system: HT29 colon
IGROV1 ovarian = test system: IGROV1 ovarian
KM12 colon = test system: KM12 colon
LOX IMVI melanoma = test system: LOX IMVI melanoma
M14 melanoma = test system: M14 melanoma
MALME-3M melanoma = test system: MALME-3M melanoma
MCF7 breast = test system: MCF7 breast
MDA-MB-231 breast = test system: MDA-MB-231 breast
MDA-MB-435 = test system: MDA-MB-435
MDA-N = test system: MDA-N
MOLT-4 leukemia = test system: MOLT-4 leukemia
NCI-H226 lung = test system: NCI-H226 lung
NCI-H23 lung = test system: NCI-H23 lung
NCI-H460 lung = test system: NCI-H460 lung
NCI-H522 lung = test system: NCI-H522 lung
NCI/ADR-RES ovarian = test system: NCI/ADR-RES ovarian
OVCAR-3 ovarian = test system: OVCAR-3 ovarian
OVCAR-4 ovarian = test system: OVCAR-4 ovarian
OVCAR-5 ovarian = test system: OVCAR-5 ovarian
OVCAR-8 ovarian = test system: OVCAR-8 ovarian
PC-3 prostate = test system: PC-3 prostate
RPMI-8226 leukemia = test system: RPMI-8226 leukemia
RXF 393 renal = test system: RXF 393 renal
SF-268 CNS = test system: SF-268 CNS
SF-295 CNS = test system: SF-295 CNS
SF-539 CNS = test system: SF-539 CNS
SK-MEL-2 melanoma = test system: SK-MEL-2 melanoma
SK-MEL-28 melanoma = test system: SK-MEL-28 melanoma
SK-MEL-5 melanoma = test system: SK-MEL-5 melanoma
SK-OV-3 ovarian = test system: SK-OV-3 ovarian
SN12C renal = test system: SN12C renal
SNB-19 CNS = test system: SNB-19 CNS
SNB-75 CNS = test system: SNB-75 CNS
SW-620 colon = test system: SW-620 colon
T-47D breast = test system: T-47D breast
TK-10 renal = test system: TK-10 renal
U251 CNS = test system: U251 CNS
UACC-257 melanoma = test system: UACC-257 melanoma
UO-31 renal = test system: UO-31 renal
CCRF-CEM leukemia = test system: CCRF-CEM leukemia
K-562 leukemia = test system: K-562 leukemia
UACC-62 melanoma = test system: UACC-62 melanoma

Question: `COc1ccc2nc3cccc([N+](=O)[O-])c3c(NCCN(C)C)c2c1` was tested. Which TGI (786-0 renal) did it give?
Answer: 348 nM

Question: And the TGI (A498 renal)?
Answer: 347 nM

Question: What about the TGI (A549 NSCLC) of the same molecule?
Answer: 279 nM

Question: What about the TGI (ACHN renal) of the same molecule?
Answer: 357 nM

Question: What about the TGI (BT-549 breast) of the same molecule?
Answer: 184 nM

Question: And the TGI (CAKI-1 renal)?
Answer: 746 nM

Question: What about the TGI (COLO 205 colon) of the same molecule?
Answer: 107 nM

Question: And the TGI (DU-145 prostate)?
Answer: 60.1 nM

Question: And the TGI (EKVX NSCLC)?
Answer: 397 nM

Question: And the TGI (HCC-2998 colon)?
Answer: 188 nM

Question: What about the TGI (HCT-116 colon) of the same molecule?
Answer: 115 nM

Question: And the TGI (HCT-15 colon)?
Answer: 263 nM

Question: What about the TGI (HOP-62 NSCLC) of the same molecule?
Answer: 323 nM

Question: And the TGI (HOP-92 NSCLC)?
Answer: 192 nM

Question: And the TGI (HS 578T breast)?
Answer: 518 nM

Question: What about the TGI (HT29 colon) of the same molecule?
Answer: 441 nM

Question: And the TGI (IGROV1 ovarian)?
Answer: 390 nM

Question: And the TGI (KM12 colon)?
Answer: 449 nM

Question: What about the TGI (LOX IMVI melanoma) of the same molecule?
Answer: 232 nM

Question: And the TGI (M14 melanoma)?
Answer: 218 nM

Question: What about the TGI (MALME-3M melanoma) of the same molecule?
Answer: 213 nM

Question: And the TGI (MCF7 breast)?
Answer: 314 nM

Question: What about the TGI (MDA-MB-231 breast) of the same molecule?
Answer: 357 nM

Question: And the TGI (MDA-MB-435)?
Answer: 208 nM

Question: What about the TGI (MDA-N) of the same molecule?
Answer: 262 nM

Question: And the TGI (MOLT-4 leukemia)?
Answer: 491 nM

Question: And the TGI (NCI-H226 lung)?
Answer: 456 nM

Question: And the TGI (NCI-H23 lung)?
Answer: 362 nM

Question: And the TGI (NCI-H460 lung)?
Answer: 67.2 nM

Question: What about the TGI (NCI-H522 lung) of the same molecule?
Answer: 48.7 nM

Question: What about the TGI (NCI/ADR-RES ovarian) of the same molecule?
Answer: 373 nM

Question: What about the TGI (OVCAR-3 ovarian) of the same molecule?
Answer: 312 nM

Question: And the TGI (OVCAR-4 ovarian)?
Answer: 271 nM

Question: What about the TGI (OVCAR-5 ovarian) of the same molecule?
Answer: 437 nM

Question: And the TGI (OVCAR-8 ovarian)?
Answer: 251 nM

Question: What about the TGI (PC-3 prostate) of the same molecule?
Answer: 268 nM

Question: What about the TGI (RPMI-8226 leukemia) of the same molecule?
Answer: 393 nM

Question: What about the TGI (RXF 393 renal) of the same molecule?
Answer: 230 nM

Question: What about the TGI (SF-268 CNS) of the same molecule?
Answer: 546 nM

Question: What about the TGI (SF-295 CNS) of the same molecule?
Answer: 1000 nM

Question: What about the TGI (SF-539 CNS) of the same molecule?
Answer: 297 nM

Question: And the TGI (SK-MEL-2 melanoma)?
Answer: 272 nM

Question: What about the TGI (SK-MEL-28 melanoma) of the same molecule?
Answer: 310 nM

Question: What about the TGI (SK-MEL-5 melanoma) of the same molecule?
Answer: 219 nM

Question: And the TGI (SK-OV-3 ovarian)?
Answer: 781 nM

Question: What about the TGI (SN12C renal) of the same molecule?
Answer: 327 nM

Question: And the TGI (SNB-19 CNS)?
Answer: 829 nM

Question: What about the TGI (SNB-75 CNS) of the same molecule?
Answer: 335 nM

Question: And the TGI (SW-620 colon)?
Answer: 756 nM

Question: And the TGI (T-47D breast)?
Answer: 408 nM

Question: And the TGI (TK-10 renal)?
Answer: 659 nM

Question: And the TGI (U251 CNS)?
Answer: 600 nM

Question: And the TGI (UACC-257 melanoma)?
Answer: 384 nM

Question: What about the TGI (UO-31 renal) of the same molecule?
Answer: 413 nM

Question: Which results are given for `Clc1ccc(Nc2nn3c(CCCCCCCCc4nnc5sc(Nc6ccc(Cl)cc6)nn45)nnc3s2)cc1`?
Answer: TGI (786-0 renal): > 100000 nM; TGI (A498 renal): > 100000 nM; TGI (A549 NSCLC): > 100000 nM; TGI (ACHN renal): > 100000 nM; TGI (BT-549 breast): > 100000 nM; TGI (CAKI-1 renal): > 100000 nM; TGI (CCRF-CEM leukemia): > 100000 nM; TGI (COLO 205 colon): > 100000 nM; TGI (DU-145 prostate): > 100000 nM; TGI (EKVX NSCLC): > 100000 nM; TGI (HCC-2998 colon): > 100000 nM; TGI (HCT-116 colon): > 100000 nM; TGI (HCT-15 colon): > 100000 nM; TGI (HOP-62 NSCLC): > 100000 nM; TGI (HOP-92 NSCLC): > 100000 nM; TGI (HS 578T breast): > 100000 nM; TGI (HT29 colon): > 100000 nM; TGI (K-562 leukemia): > 100000 nM; TGI (KM12 colon): > 100000 nM; TGI (LOX IMVI melanoma): > 100000 nM; TGI (M14 melanoma): > 100000 nM; TGI (MALME-3M melanoma): > 100000 nM; TGI (MCF7 breast): > 100000 nM; TGI (MDA-MB-231 breast): > 100000 nM; TGI (MDA-MB-435): > 100000 nM; TGI (MDA-N): > 100000 nM; TGI (MOLT-4 leukemia): > 100000 nM; TGI (NCI-H226 lung): > 100000 nM; TGI (NCI-H23 lung): > 100000 nM; TGI (NCI-H460 lung): > 100000 nM; TGI (NCI-H522 lung): > 100000 nM; TGI (NCI/ADR-RES ovarian): > 100000 nM; TGI (OVCAR-3 ovarian): > 100000 nM; TGI (OVCAR-4 ovarian): > 100000 nM; TGI (OVCAR-5 ovarian): > 100000 nM; TGI (OVCAR-8 ovarian): > 100000 nM; TGI (PC-3 prostate): > 100000 nM; TGI (RPMI-8226 leukemia): > 100000 nM; TGI (RXF 393 renal): > 100000 nM; TGI (SF-268 CNS): > 100000 nM; TGI (SF-295 CNS): > 100000 nM; TGI (SF-539 CNS): > 100000 nM; TGI (SK-MEL-2 melanoma): > 100000 nM; TGI (SK-MEL-28 melanoma): > 100000 nM; TGI (SK-MEL-5 melanoma): > 100000 nM; TGI (SK-OV-3 ovarian): > 100000 nM; TGI (SN12C renal): > 100000 nM; TGI (SNB-19 CNS): 80400 nM; TGI (SNB-75 CNS): 62600 nM; TGI (SW-620 colon): > 100000 nM; TGI (T-47D breast): > 100000 nM; TGI (TK-10 renal): 96800 nM; TGI (U251 CNS): > 100000 nM; TGI (UACC-257 melanoma): > 100000 nM; TGI (UACC-62 melanoma): > 100000 nM; TGI (UO-31 renal): > 100000 nM
